Blank lines part the entries; values can stand above or below the compound they belong to.
Tests used:
Type in all cases: physicochemical
[1] = Environmental stress (temperature / relative humidity), solid form by XRPD
Experimental: The mesophase treprostinil of FIG. 31 are formed, from top to bottom, from the following solutions: (1) 0.40 water activity slurry with acetone 2 days; (2) DCM slurry 60 to 30° C.; (3) 0.80 water activity slurry with isopropanol 7 days; (4) 1-propanol/water 1:1 v/v slurry ambient temperature; (5) Form B+A+mesophase 50° C. 7 days, (6) Acetonitrile slurry ambient temperature; (7) Form A 50° C. 15 hours; (8) Methanol/ethyl acetate evaporation; (9) Toluene crash precipitation from methyl ethyl ketone.
Solids were stressed in glass vials under various drying and relative humidity (RH) environments for specified times, generally monitoring weight change during stressing. Drying was done via ambient, P2O5, vacuum (ambient and elevated temperatures), and convection oven experiments, for which the only drying condition listed in the tables is the oven temperature. Ambient experiments were conducted by leaving samples exposed in a laboratory fume hood. Specific RH values were achieved by placing the sample inside sealed chambers containing saturated salt solutions or into separate chambers containing P2O5 powder for 0% RH. The salt solutions were selected and prepared based an ASTM standard procedure. For vacuum experiments, vials were covered with nylon filters to prevent potential solid loss. For the elevated temperature experiments, temperature was measured by a NIST-traceable thermometer. […]

[2] = Dynamic vapor sorption (DVS); conditions: for DVS weight loss: 95 to 5% RH
Experimental: DVS data were collected on a VTI SGA-100 Vapor Sorption Analyzer. NaCl and PVP were used as calibration standards. Samples were not dried prior to analysis. Sorption and desorption data were collected over a range from 5 to 95% RH (or 55 to 95% RH for Form B) at 10% RH increments under a nitrogen purge. The equilibrium criterion used for analysis was less than 0.0100% weight change in 5 minutes with a maximum equilibration time of 3 hours. Data were not corrected for the initial moisture content of the samples.

[3] = TG-IR heating, post-TG-IR XRPD; conditions: heated 25-97° C.
Experimental: Thermogravimetric infrared (TG-IR) analysis was performed on a TA Instruments thermogravimetric (TG) analyzer model 2050 interfaced to a Magna-IR 560® Fourier transform infrared (IR) spectrophotometer (Thermo Nicolet) equipped with an Ever-Glo mid/far IR source, a potassium bromide (KBr) beamsplitter, and a mercury cadmium telluride (MCT-A) detector. The IR wavelength verification was performed using polystyrene, and the TG calibration standards were nickel and Alumel™. The sample was placed in a platinum sample pan, and the pan was inserted into the TG furnace. The TG instrument was started first, immediately followed by the FT-IR instrument. The TG instrument was operated under a flow of helium at 90 and 10 cc/min for the purge and balance, respectively. The furnace was heated under helium at a rate of 20° C./minute to a final temperature of 97° C. IR spectra were collected approximately every 16 seconds for approximately 13 minutes. Each IR spectrum represents 16 co-added scans collected at a spectral resolution of 4 cm^−1. Volatiles were identified from a search of the High Resolution Nicolet Vapor Phase spectral library (v. 1990-1994).

[4] = Stability tests of anhydrous treprostinil on standing
Experimental: An anhydrous form of treprostinil has been previously described, e.g., in J. Org. Chem. 2004, 69, 1890-1902. The anhydrous form is not stable at room temperature. […] A larger amount of dimers can form at higher temperatures. However, dimer formation is negligible at 5° C. Therefore, anhydrous treprostinil must be refrigerated for storage and transport. In the past, anhydrous treprostinil had to be refrigerated and shipped with ice packs to maintain low (2° C.-8° C.) temperatures.

SMILES: CCCCC[C@H](O)CC[C@@H]1[C@H]2Cc3cccc(OCC(=O)O)c3C[C@H]2C[C@H]1O [Mesophase treprostinil, 2-((1R,2R,3aS,9aS)-2-hydroxy-1-((S)-3-hydroxyoctyl)-2,3,3a,4,9,9a-hexahydro-1H-cyclopenta[b]naphthalen-5-yloxy)acetic acid]
Solid form after stress (XRPD) ([1]; 97% RH 12 days): mesophase+weak Form B

SMILES: CCCCC[C@H](O)CC[C@@H]1[C@H]2Cc3cccc(OCC(=O)O)c3C[C@H]2C[C@H]1O [Treprostinil Form C, 2-((1R,2R,3aS,9aS)-2-hydroxy-1-((S)-3-hydroxyoctyl)-2,3,3a,4,9,9a-hexahydro-1H-cyclopenta[b]naphthalen-5-yloxy)acetic acid]
DVS weight gain ([2]; 5 to 75% RH): 0.2% weight gain 5 to 75% RH | DVS weight gain ([2]; 75 to 95% RH): 4.6% weight gain 75 to 95% RH | DVS weight loss [2]: 0.5% weight loss 95 to 5% RH | post-DVS XRPD (solid form after DVS) ([2]; after sorption/desorption cycle): B + A | DVS weight loss upon equilibration ([2]; equilibration at 5% RH): 0.1% weight loss upon equilibration at 5% RH

More lines, main results first:

DVS weight gain ([2]; 5 to 95% RH): 0.7% weight gain 5 to 95% RH | DVS weight loss [2]: 0.6% weight loss 95 to 5% RH | Solid form after stress (XRPD) ([1]; 50° C. 15 hours): mesophase | Post-TG-IR XRPD (solid form after heating) [3]: mesophase
SMILES: CCCCC[C@H](O)CC[C@@H]1[C@H]2Cc3cccc(OCC(=O)O)c3C[C@H]2C[C@H]1O [Treprostinil monohydrate Form A, 2-((1R,2R,3aS,9aS)-2-hydroxy-1-((S)-3-hydroxyoctyl)-2,3,3a,4,9,9a-hexahydro-1H-cyclopenta[b]naphthalen-5-yloxy)acetic acid]

DVS weight gain ([2]; 55 to 95% RH): 0.4% weight gain 55 to 95% RH | DVS weight loss [2]: 0.6% weight loss 95 to 5% RH
SMILES: CCCCC[C@H](O)CC[C@@H]1[C@H]2Cc3cccc(OCC(=O)O)c3C[C@H]2C[C@H]1O [Treprostinil monohydrate Form B, 2-((1R,2R,3aS,9aS)-2-hydroxy-1-((S)-3-hydroxyoctyl)-2,3,3a,4,9,9a-hexahydro-1H-cyclopenta[b]naphthalen-5-yloxy)acetic acid]
DVS weight gain upon equilibration ([2]; equilibration at 55% RH): 0.3% weight gain upon equilibration at 55% RH

Dimer formation ([4]; 5° C.): negligible | Stability ([4]; 25° C., dimers formed upon standing): not stable
SMILES: CCCCC[C@H](O)CC[C@@H]1[C@H]2Cc3cccc(OCC(=O)O)c3C[C@H]2C[C@H]1O [anhydrous treprostinil, 2-((1R,2R,3aS,9aS)-2-hydroxy-1-((S)-3-hydroxyoctyl)-2,3,3a,4,9,9a-hexahydro-1H-cyclopenta[b]naphthalen-5-yloxy)acetic acid]
